In the assay the target is T1, human ΔF508-CFTR (Homo sapiens, UniProt P13569, DEL508-508).
T1 construct: expressed in transfected cells
As to the kind of experiment: CFTR-YFP High Throughput Assay (YFP halide flux in FRT cells). It counts as cell-based. The note with it: FRT cells expressing human ΔF508-CFTR and YFP; for EC50: forskolin stimulated. Summed up:
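FRT cells stably co-expressing human ΔF508-CFTR and halide-sensitive YFP-H148Q/I152L were treated with compound […] for 24–26 h at 37 °C (corrector mode), washed, then stimulated with 20 μM forskolin plus 30 μM potentiator P3 for 60–120 min at room temperature. Iodide-induced YFP quench (ex 500/em 540 nm) rates came from least-squares fitting.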

Where only a bound is given, the exact number is not on record here.

T1 sequence (P13569 with tags, fused parts or gaps DEL508-508): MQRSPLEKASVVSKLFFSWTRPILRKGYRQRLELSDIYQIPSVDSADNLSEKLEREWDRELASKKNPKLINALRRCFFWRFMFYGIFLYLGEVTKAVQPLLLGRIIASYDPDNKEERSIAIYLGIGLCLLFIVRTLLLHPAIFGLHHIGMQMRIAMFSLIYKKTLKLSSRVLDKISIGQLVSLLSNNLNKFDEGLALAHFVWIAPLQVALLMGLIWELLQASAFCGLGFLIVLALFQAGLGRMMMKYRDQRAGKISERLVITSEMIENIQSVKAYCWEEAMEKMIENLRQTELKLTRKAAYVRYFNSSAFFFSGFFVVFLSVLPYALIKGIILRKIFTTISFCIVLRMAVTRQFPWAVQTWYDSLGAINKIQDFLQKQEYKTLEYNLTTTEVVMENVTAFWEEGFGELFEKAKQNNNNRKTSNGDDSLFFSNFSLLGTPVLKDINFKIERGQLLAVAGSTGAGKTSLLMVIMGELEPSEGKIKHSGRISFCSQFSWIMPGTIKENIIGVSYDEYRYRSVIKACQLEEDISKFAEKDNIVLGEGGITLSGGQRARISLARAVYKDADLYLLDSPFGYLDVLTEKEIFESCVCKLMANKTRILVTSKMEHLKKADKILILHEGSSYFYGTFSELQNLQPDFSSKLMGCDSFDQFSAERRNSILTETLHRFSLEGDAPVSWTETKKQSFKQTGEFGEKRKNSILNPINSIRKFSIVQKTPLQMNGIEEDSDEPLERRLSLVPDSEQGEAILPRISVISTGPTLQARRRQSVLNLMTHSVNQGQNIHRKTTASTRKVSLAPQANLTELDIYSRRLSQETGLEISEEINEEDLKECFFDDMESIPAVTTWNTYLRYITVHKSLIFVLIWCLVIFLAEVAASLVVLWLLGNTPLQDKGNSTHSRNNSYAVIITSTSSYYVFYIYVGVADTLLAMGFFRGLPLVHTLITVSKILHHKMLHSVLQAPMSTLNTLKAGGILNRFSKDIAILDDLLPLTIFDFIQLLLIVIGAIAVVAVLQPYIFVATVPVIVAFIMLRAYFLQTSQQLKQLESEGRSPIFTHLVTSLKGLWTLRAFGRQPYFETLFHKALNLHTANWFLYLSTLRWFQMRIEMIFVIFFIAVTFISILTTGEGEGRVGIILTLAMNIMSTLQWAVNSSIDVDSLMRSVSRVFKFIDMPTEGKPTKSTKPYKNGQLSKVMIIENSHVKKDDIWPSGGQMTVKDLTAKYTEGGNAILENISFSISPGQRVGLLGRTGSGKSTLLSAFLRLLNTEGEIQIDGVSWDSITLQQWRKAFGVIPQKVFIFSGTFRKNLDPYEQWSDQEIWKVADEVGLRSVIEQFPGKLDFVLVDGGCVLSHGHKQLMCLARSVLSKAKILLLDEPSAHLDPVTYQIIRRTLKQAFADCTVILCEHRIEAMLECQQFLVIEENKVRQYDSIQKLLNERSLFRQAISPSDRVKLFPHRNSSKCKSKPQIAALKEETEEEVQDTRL

The EC50 is the concentration at which the effect is half-maximal. For the molecule `CCN(C(=O)c1nn(-c2ccccc2)c(=O)c2c1c1ccccc1n2C)c1cccc(Cl)c1` [Example 132, N-(3-chlorophenyl)-N-ethyl-5-methyl-4-oxo-3-phenyl-4,5-dihydro-3H-pyridazino[4,5-b]indole-1-carboxamide], the EC50 is below 10 µM.
Consider `CCN(C(=O)c1nn(-c2ccc(C)cc2)c(=O)c2c1c1ccccc1n2C)c1ccc2c(c1)OC(F)(F)O2` [Example 133, N-(2,2-difluorobenzo[d][1,3]dioxol-5-yl)-N-ethyl-5-methyl-4-oxo-3-(p-tolyl)-4,5-dihydro-3H-pyridazino[4,5-b]indole-1-carboxamide], for which the concentration giving a half-maximal response (EC50) was below 10 µM.
Still for that read-out and setting: for `CCN(C(=O)c1nn(-c2ccc(C)cc2)c(=O)c2c1c1ccccc1n2C)c1cc(Cl)ccc1C(=O)O` [Example 134, 4-chloro-2-(N-ethyl-5-methyl-4-oxo-3-(p-tolyl)-4,5-dihydro-3H-pyridazino[4,5-b]indole-1-carboxamido)benzoic acid] the value was below 10 µM; for `Cc1ccc(-n2nc(C(=O)Nc3cc(Cl)ccc3C(=O)O)c3c4ccccc4n(C)c3c2=O)cc1` [Example 135, 4-chloro-2-(5-methyl-4-oxo-3-(p-tolyl)-4,5-dihydro-3H-pyridazino[4,5-b]indole-1-carboxamido)benzoic acid], below 10 µM; for `CCN(C(=O)c1nn(Cc2ccccc2)c(=O)c2c1c1ccccc1n2C)c1ccccc1` [Example 136, 3-benzyl-N-ethyl-5-methyl-4-oxo-N-phenyl-4,5-dihydro-3H-pyridazino[4,5-b]indole-1-carboxamide], above 20 µM.
The same measure, in the same setting: for `CCN(C(=O)c1nn(C2CCN(Cc3ccccc3)CC2)c(=O)c2c1c1ccccc1n2C)c1ccccc1` [Example 137, 3-(1-benzylpiperidin-4-yl)-N-ethyl-5-methyl-4-oxo-N-phenyl-4,5-dihydro-3H-pyridazino[4,5-b]indole-1-carboxamide] the value was below 10 µM.
On the same count and under the same terms, for `CCN(C(=O)c1nn(C(C)C)c(=O)c2c1c1ccccc1n2C)c1cccc(Cl)c1` [Example 140, N-(3-chlorophenyl)-N-ethyl-3-isopropyl-5-methyl-4-oxo-4,5-dihydro-3H-pyridazino[4,5-b]indole-1-carboxamide] the value was below 10 µM.
In the case of `CCN(C(=O)Cn1nc(C(=O)N(CC)c2cccc(Cl)c2)c2c3ccccc3n(C)c2c1=O)c1ccc2c(c1)OC(F)(F)O2` [Example 141, N-(3-chlorophenyl)-3-(2-((2,2-difluorobenzo[d][1,3]dioxol-5-yl)(ethyl)amino)-2-oxoethyl)-N-ethyl-5-methyl-4-oxo-4,5-dihydro-3H-pyridazino[4,5-b]indole-1-carboxamide], the EC50 is below 10 µM.
The same measure, in the same setting: for `CCc1ccc(N(CC)C(=O)Cn2nc(C(=O)N(CC)c3cccc(Cl)c3)c3c4ccccc4n(C)c3c2=O)cc1` [Example 142, N-(3-chlorophenyl)-N-ethyl-3-(2-(ethyl(4-ethylphenyl)amino)-2-oxoethyl)-5-methyl-4-oxo-4,5-dihydro-3H-pyridazino[4,5-b]indole-1-carboxamide] the value was below 10 µM; for `CCN(C(=O)c1nn(C2CCCCC2)c(=O)c2c1c1ccccc1n2C)c1cccc(Cl)c1` [Example 143, N-(3-chlorophenyl)-3-cyclohexyl-N-ethyl-5-methyl-4-oxo-4,5-dihydro-3H-pyridazino[4,5-b]indole-1-carboxamide], below 10 µM; for `CCN(C(=O)c1nn(C(C)C)c(=O)c2c1c1ccccc1n2C)c1cc(Cl)ccc1C#N` [Example 144, N-(5-chloro-2-cyanophenyl)-N-ethyl-3-isopropyl-5-methyl-4-oxo-4,5-dihydro-3H-pyridazino[4,5-b]indole-1-carboxamide], below 10 µM.
Same read-out and setting: then `CCN(CC)C(=O)c1nn(CC(=O)N(CC)c2ccc3c(c2)OC(F)(F)O3)c(=O)c2c1c1ccccc1n2C` [Example 145, 3-(2-((2,2-difluorobenzo[d][1,3]dioxol-5-yl)(ethyl)amino)-2-oxoethyl)-N,N-diethyl-5-methyl-4-oxo-4,5-dihydro-3H-pyridazino[4,5-b] indole-1-carboxamide], with below 10 µM.
With `CCN(C(=O)c1nn(-c2ccc(C)cc2)c(=O)c2c1c1ccccc1n2C1CCC1)c1ccccc1` [Example 146, 5-cyclobutyl-N-ethyl-4-oxo-N-phenyl-3-p-tolyl-4,5-dihydro-3H-pyridazino[4,5-b]indole-1-carboxamide], the EC50 lay in the range of 10 to 20 µM.
Still for that read-out and setting: then `CCN(C(=O)c1nn(-c2ccc(C)cc2)c(=O)c2[nH]c3ccccc3c12)c1ccccc1` [Example 147, N-Ethyl-4-oxo-N-phenyl-3-p-tolyl-4,5-dihydro-3H-pyridazino[4,5-b]indole-1-carboxamide], with below 10 µM.
For `CCN(C(=O)c1nn(-c2ccc(C)cc2)c(=O)c2[nH]c3ccccc3c12)c1cccc(Cl)c1` [Example 148, N-(3-chlorophenyl)-N-ethyl-4-oxo-3-(p-tolyl)-4,5-dihydro-3H-pyridazino[4,5-b]indole-1-carboxamide], the EC50 was below 10 µM.
On to `CCN(C(=O)Cn1ncc2c([nH]c3ccccc32)c1=O)c1ccc2c(c1)OC(F)(F)O2` [Example 149, N-(2,2-difluorobenzo[d][1,3]dioxol-5-yl)-N-ethyl-2-(4-oxo-4,5-dihydro-3H-pyridazino[4,5-b]indol-3-yl)acetamide], for which the EC50 was below 10 µM.
The same measure, in the same setting: for `CCN(C(=O)c1nn(-c2ccc(C)cc2)c(=O)c2c1c1ccccc1n2CC#N)c1ccccc1` [Example 150, 5-(cyanomethyl)-N-ethyl-4-oxo-N-phenyl-3-(p-tolyl)-4,5-dihydro-3H-pyridazino[4,5-b]indole-1-carboxamide] the value was above 20 µM; for `CCN(C(=O)c1nn(-c2ccc(C)cc2)c(=O)c2c1c1ccccc1n2CC(=O)O)c1ccccc1` [Example 151, 2-(1-(ethyl(phenyl)carbamoyl)-4-oxo-3-(p-tolyl)-3H-pyridazino[4,5-b]indol-5(4H)-yl)acetic acid], above 20 µM; for `CCN(C(=O)c1nn(-c2ccc(C)cc2)c(=O)c2c1c1ccccc1n2C(C)C)c1ccccc1` [Example 152, N-ethyl-5-isopropyl-4-oxo-N-phenyl-3-(p-tolyl)-4,5-dihydro-3H-pyridazino[4,5-b]indole-1-carboxamide], above 20 µM.
For `CCN(C(=O)c1nn(-c2ccc(C)cc2)c(=O)c2c1c1ccccc1n2Cc1ccccn1)c1ccccc1` [Example 153, N-ethyl-4-oxo-N-phenyl-5-(pyridin-2-ylmethyl)-3-(p-tolyl)-4,5-dihydro-3H-pyridazino[4,5-b]indole-1-carboxamide], the EC50 is above 20 µM.
As to `CCN(C(=O)Cn1nc(Cc2cccnc2)c2c3ccccc3n(C)c2c1=O)c1ccc2c(c1)OC(F)(F)O2` [Example 157, N-(2,2-difluorobenzo[d][1,3]dioxol-5-yl)-N-ethyl-2-(5-methyl-4-oxo-1-(pyridin-3-ylmethyl)-4,5-dihydro-3H-pyridazino[4,5-b]indol-3-yl)acetamide], the half-maximal effective concentration (EC50) was above 20 µM.
For “N-(2,2-difluorobenzo[d][1,3]dioxol-5-yl)-N-ethyl-2-(1-oxo-4-(4-sulfamoyl-phenyl)phthalazin-2(1H)-yl)acetamide [Example 17]”, the “% Efficacy (Emax normalized to the positive control)” value is recorded as “++ (a range of 80%-30%)” and the EC50 was below 10 µM.
The matching figures for “N-(2,2-difluorobenzo[d][1,3]dioxol-5-yl)-N-ethyl-2-(1-oxo-4-(pyridin-3-yl)phthalazin-2(1H)-yl)acetamide [Example 23]”: “++ (a range of 80%-30%)” and 10 to 20 µM.
In the case of “N-(2,2-difluorobenzo[d][1,3]dioxol-5-yl)-N-ethyl-2-(4-(3-fluorophenyl)-1-oxophthalazin-2(1H)-yl)acetamide [Example 22]”, the “% Efficacy (Emax normalized to the positive control)” value is listed as “++ (a range of 80%-30%)” and the EC50 is below 10 µM.
The like results for “N-ethyl-N-(4-ethylphenyl)-2-(1-oxo-4-(4-sulfamoylphenyl)phthalazin-2(1H)-yl)acetamide [Example 12]” were, in that order, “++ (a range of 80%-30%)” and above 20 µM.
The matching figures for “N-ethyl-N-(4-ethylphenyl)-2-(4-(3-hydroxyphenyl)-1-oxophthalazin-2(1H)-yl)acetamide [Example 8]”: “++ (a range of 80%-30%)” and below 10 µM.
The like results for “N-ethyl-N-(4-ethylphenyl)-2-(4-(4-(methylsulfonyl)phenyl)-1-oxophthalazin-2(1H)-yl)acetamide [Example 15]” were, in that order, “+ (a range of 30%-10%)” and above 20 µM.
With “methyl 4-(3-(2-(ethyl(4-ethylphenyl)amino)-2-oxoethyl)-4-oxo-3,4-dihydrophthalazin-1-yl)benzoate [Example 14]”, the “% Efficacy (Emax normalized to the positive control)” value is “++ (a range of 80%-30%)” and the EC50 was above 20 µM.
